Reference: the supplement of paper PMC4954754
± gives the uncertainty stated by the source.

Assays:
Settings in all cases: 18 h
HEK293T-Rex XBP1-RLuc [1] = assay: EC50 for XBP1-RLuc reporter activation
Experimental: (§1)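 Dose-response of hit compounds in HEK293T-Rex cells stably expressing ERSE-FLuc or XBP1-RLuc reporters, 18 hr treatment, 1536-well; luminescence normalised to 500 nM thapsigargin (100%) and DMSO (0%), fitted to give EC50 (M) and maximal activation; '>' marks EC50 above the top tested dose (~17 µM).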

HEK293T-Rex ERSE-FLuc [2] = assay: maximal ERSE-FLuc activation from dose-response fit, relative to thapsigargin (% of thapsigargin); higher = stronger activation
Experimental: as §1

HEK293T-Rex ERSE-FLuc [3] = assay: EC50 for ERSE-FLuc reporter activation
Experimental: as §1

HEK293T-Rex XBP1-RLuc [4] = assay: maximal XBP1-RLuc activation from dose-response fit, relative to thapsigargin (% of thapsigargin); higher = stronger activation
Experimental: as §1

SMILES | EC50 for XBP1-RLuc reporter activation (HEK293T-Rex XBP1-RLuc [1]) [µM] | maximal ERSE-FLuc activation (HEK293T-Rex ERSE-FLuc [2]) | EC50 for ERSE-FLuc reporter activation (HEK293T-Rex ERSE-FLuc [3]) [µM] | maximal XBP1-RLuc activation (HEK293T-Rex XBP1-RLuc [4])
Cn1cccc1/C=C1/SC(=Nc2ccccc2)NC1=O | > 16.7 | 40.8 ± 2.8 | > 16.7 | 18.6 ± 6.5
Nc1ccc2nc(-c3ccccn3)[nH]c2c1 | > 16.9 | 16.8 ± 4.6 | > 16.9 | 22 ± 0.38
CCCCCOc1ccc(N/C(N)=N/c2nc(C)cc(C)n2)cc1 | 4.05 | 68 ± 8.8 | 10.4 | 152 ± 12
COC(=O)c1c(NC(=O)CCl)sc(C(=O)Nc2cccc([N+](=O)[O-])c2)c1C | > 16.9 | 32.9 ± 4.5 | > 16.9 | 29.6 ± 2.9
COc1ccc(-c2csc(N(CC3CCCO3)C(=O)CCl)n2)cc1 (stereo not drawn) | > 16.9 | 17.5 ± 3.4 | > 16.9 | 10.3 ± 0.8
Cc1ccc(/C=C(\C#N)C(=O)Nc2cccc(Cl)c2)o1 | > 16.9 | 14.7 ± 3.1 | > 16.9 | 3.54 ± 1.9
COc1ccccc1-c1nnc(Nc2nc3c(OC)cccc3s2)o1 | > 16.9 | 32.7 ± 3 | > 16.9 | 12.5 ± 1
CCn1c(/C(C#N)=C/c2ccc(OC)cc2)nc2ccccc21 | > 19.4 | 30.6 ± 6.3 | > 19.4 | 5.17 ± 3
O=C(N/N=C\C(Br)=C\c1ccccc1)c1n[nH]c2c1CCCC2 | > 16.9 | 17.2 ± 4.7 | > 16.9 | 9.49 ± 5.7
COc1ccc(Nc2nccn3c(-c4ccsc4)cnc23)cn1 | > 16.9 | 23.1 ± 0.89 | > 16.9 | 8.52 ± 2.1
COc1ccc(-n2nnnc2SCC(N)=O)c(OC)c1 | > 16.9 | 11.9 ± 3.1 | > 16.9 | 1.34 ± 2.6
O=C(N/N=C/c1ccc(Cl)cc1Cl)c1ccc(O)c(O)c1 | > 16.9 | 32.6 ± 8 | > 16.9 | 47 ± 2.7
Cc1cc2nc(-c3ccc(SCC#N)nc3)[nH]c2cc1C | > 16.9 | 20.4 ± 3.8 | > 16.9 | 8.52 ± 0.53
CCN(CC)c1ccc2cc(-c3nc4ccccc4n3C)c(=O)oc2c1 | > 10.6 | 22.8 ± 1.6 | > 10.6 | 2.95 ± 3.5
CCCNC(=O)c1ccc2nc(-c3ccc4[nH]ccc4c3)sc2c1 | > 17.4 | 13.9 ± 6.1 | > 17.4 | 2.49 ± 1.2
O=[N+]([O-])c1ccccc1N/N=C/c1ccc(O)c(O)c1 | > 16.9 | 38 ± 11 | > 16.9 | 43.4 ± 3.5
O=C(NCCc1ccccc1)c1cc(-c2cccs2)on1 | > 16.9 | 64.6 ± 9.1 | 12.4 | 8.27 ± 3.3
CC(=O)Oc1ccc(C(=O)OCc2ccc(Cl)cc2)cc1OC(C)=O | > 18.6 | 40.4 ± 4.3 | > 18.6 | 24.7 ± 3.7
CCOc1cc(/C=C2/NC(=O)N(c3cccc(Cl)c3)C2=O)ccc1O | 11.9 | 47.5 ± 4.4 | > 16.9 | 61.4 ± 9.7
COc1cccc(/C=N/NC(=O)c2n[nH]c3c2CCCC3)c1 | > 16.9 | 29.6 ± 6.7 | > 16.9 | 3.95 ± 0.69
Cc1cc(C)nc(Nc2nc(-c3ccc(O)c(O)c3)cs2)n1 | 14.1 | 39.7 ± 7.3 | > 16.9 | 59.1 ± 1.4
Cc1ccccc1-c1cc(=O)c2cc(Cl)ccc2o1 | > 17 | 24.3 ± 3.6 | > 17 | 21.7 ± 1.1
